# Laboratory results published in patent publication US11517540B2, “Restoring physiology in iron-deficient organisms using small molecules” (The Board of Trustees of the University of Illinois, priority 2015, dated 2022).
# Entries after “also recorded” stand apart in the source; their conditions may differ. Where no end group is shown, it is not given here.
# What was measured:
# [1] = system: DMT1-deficient Caco-2 epithelia monolayers; experiment: 55Fe uptake and transepithelial transport in DMT1-deficient Caco-2 monolayers; details: for 55Fe uptake into cells / transepithelial 55Fe transport: shDMT1 monolayers, apical addition
# From the text: (§1) In normal epithelia, iron brought into the cell via apical DMT1 transporters is stored in cytosolic ferritin clusters and directionally exported through the basolateral membrane by FPN1. Transepithelial iron flux via this network of proteins is regulated by the iron response element which is sensitive to intracellular iron concentrations.
# [2] = Permeability assays; assay type: in vitro ADME; details: not told
# From the text: This was sustained for >2 months.
# [3] = system: FPN1; experiment: 55Fe uptake and transepithelial transport in control Caco-2 monolayers with FPN1 down-regulated by quercetin; assay type: cell-based, human
# From the text: as §1
# [4] = system: DMT1-deficient Belgrade (b/b) rats; experiment: Chronic exposure of Belgrade (b/b) rats in rat chow: hematocrit; assay type: in vivo; details: for hematocrit after one month of treatment: 0.2% in rat chow (˜100 mg/kg/day)
# From the text: (§2) Belgrade (b/b) rats (FIG. 3, panel (A)) are the leading model of the disease and display severe hematological defects such as decreased hematocrit values amongst other markers.
# [5] = Iron binding (UV trace after addition of iron); assay type: physicochemical
# From the text: (§3) FIG. 5 illustrates the biophysical characterization of hinokitiol.
# [6] = system: Mitoferrin-deficient MEL cell lines; experiment: Hemoglobinization and 55Fe use in mitoferrin-deficient MEL cells; assay type: cell-based, murine; details: for hemoglobinization: conditions identical to DMT1-deficient cells
# [7] = system: J774 macrophages; assay type: cell-based
# Description: To test the capacity for hinokitiol to restore iron release in FPN1 deficiencies, J774 macrophages were utilized. J774 cells with ^55Fe-transferrin were incubated in the absence or presence of hepcidin. Hepcidin is a key iron regulator, down-regulating FPN1 by promoting its degradation.
# [8] = system: DMT1-deficient MEL cells; experiment: Differentiation / hemoglobinization of DMT1-deficient MEL cells (o-dianisidine staining); details: for differentiation (staining of hemoglobinized cells with o-dianisidine): 2% DMSO induction
# From the text: To gain a better fundamental understanding of this phenomenon, DS19 murine erythroleukemia (MEL) cells were used. These terminally differentiate toward developing erythrocytes after induction with 2% DMSO leading to increased iron uptake and globin expression. DMT1-deficient cell lines through shRNA knockdown were developed (FIG. 7, panel (B)).
# [9] = system: TMEM14CΔ; experiment: Hemoglobinization in heme biosynthesis-deficient (TMEM14CΔ) cells; assay type: cell-based
# [10] = system: Reticulocytes isolated ex vivo from DMT1-deficient Belgrade (b/b) rats; experiment: 59Fe incorporation into heme in reticulocytes isolated ex vivo; details: for 59Fe incorporation into heme: plasma spiked with 59Fe-transferrin, b/b reticulocytes
# Description: The capacity for hinokitiol to restore hemoglobinization in DMT1-deficient erythroid progenitors was evaluated. Reticulocytes isolated ex vivo from DMT1-deficient Belgrade (b/b) and healthy (+/b) rats were incubated in plasma spiked with ^59Fe-transferrin to assess hinokitiol's ability to promote iron utilization.
# The use of these MEL cells allowed us to test the hypothesis that hinokitiol autonomously transports iron down pre-existing concentration gradients. To do this, we utilized live cell fluorescence imaging with iron-specific dyes to visualize intracellular iron distribution.
# [11] = system: DMT1-deficient MEL cells; experiment: Live cell fluorescence imaging of intracellular iron distribution with iron-specific dyes; assay type: cell-based, murine
# [12] = system: S. cerevisiae missing the iron transporting complex Fet3Ftr1 (fet3Δftr1Δ); experiment: Modified functional complementation: growth rescue of iron transporter-deficient yeast; assay type: cell-based
# Description: To identify small molecules which perform such transport, a modified functional complementation experiment was performed. […] Growth restoration is not due to generic hormetic effects (FIG. 4, panel (D)) and can be sustained >40 days with continued reliance on hinokitiol (FIG. 4, panel (E)).
# [13] = Release of iron from POPC liposomes
# From the text: as §3
# [14] = 0.2% of feed, 13 weeks orally; cited from earlier work
# [15] = Toxicity and pharmacokinetic half-life in healthy rats
# From the text: as §2
# [16] = From the text: as §3
# [17] = system: hino-rescued yeast; experiment: Sensitivity of hinokitiol-rescued yeast to chemical inhibitors; assay type: cell-based, S. cerevisiae; details: ebselen: Pma1; bafilomycin: V-ATPase; caspofungin: off-pathway cell wall biosynthesis
# [18] = control monolayers treated with quercetin
compound,measurement,setting,value
"CC(C)c1cccc(=O)c(O)c1 [hinokitiol, 2-hydroxy-6-propan-2-ylcyclohepta-2,4,6-trien-1-one]",DMT1 expression after hinokitiol,[1],independent of DMT1 expression; also recorded: does not induce expression of DMT1
same,55Fe uptake as function of hinokitiol dosage,[1]; DMT1-deficient monolayers,proportional to the hinokitiol dosage
same,transepithelial 55Fe transport at high hinokitiol concentrations,[1]; DMT1-deficient monolayers,reduced when a high intracellular iron concentration is reached
same,basolateral to apical iron transport,[1]; basolateral addition of 55Fe and hinokitiol,failed to promote transport of iron from the basolateral to the apical side
same,monolayer integrity,[1]; hinokitiol 500 nM,without disrupting monolayer integrity
same,55Fe incorporation into ferritin,"[1]; immunoprecipitation of ferritin after apical 55Fe, DMT1-deficient monolayers",restored high incorporation of ^55Fe into ferritin
same,uptake and transport at range of pH,[1]; pHs observed throughout the duodenum,maintained at a range of pHs observed throughout the duodenum
same,55Fe uptake into cells,[1]; hinokitiol 500 nM,restored
same,transepithelial 55Fe transport,[1]; hinokitiol 500 nM,restored
same,oral bioavailability in vivo suggested by permeability assays,[2],good oral bioavailability
same,restoration of transepithelial transport in FPN1 down-regulated monolayers,[3]; quercetin-treated monolayers plus hinokitiol,unable to restore transepithelial transport
same,time over which hematocrit restoration was sustained,[4]; 0.2% in rat chow,> 2 months
same,hematocrit after one month of treatment,[4]; 100 mg/kg/day,restored hematocrit to b/b rats to levels that are no longer considered anemic; also recorded: restores hematocrit to non-anemic values
same,hematocrit after four weeks of treatment,"[4]; 0.2% of feed, ˜125 mg/kg each day",significant increases in hematocrit
same,iron binding,[5],confirmed; also recorded: binds iron
same,55Fe incorporation into heme,[6],increases in ^55Fe uptake and incorporation into heme
same,55Fe uptake,[6],increases in ^55Fe uptake and incorporation into heme
same,hemoglobinization,[6],restored hemoglobinization
same,toxicity,[7],without observable toxicity
same,release of intracellular iron,"[7]; J774 cells with 55Fe-transferrin, FPN1 down-regulated with hepcidin",released this intracellular iron back to normal levels in dose-dependent fashion
same,differentiation without DMSO induction,[8]; no DMSO induction,unable to promote differentiation without DMSO induction
same,differentiation (staining of hemoglobinized cells with o-dianisidine),"[8]; shDMT1 MEL cells, 72 hours",restored differentiation
same,toxicity,"[8]; shDMT1 MEL cells, 72 hours",without toxicity
same,hemoglobinization,[9],did not restore hemoglobinization
same,hemolysis,[10]; at concentrations increasing heme incorporation,did not cause hemolysis
same,59Fe incorporation into heme,[10],increased ^59Fe incorporation into heme in a dose-dependent fashion; also recorded: restored incorporation of ^59Fe into heme
same,cytosolic iron levels (calcein green),[11],increased cytosolic and mitochondrial levels
same,endosomal iron levels (oxyburst green),[11],decreased endosomal iron levels
same,mitochondrial iron levels (RPA),[11],increased cytosolic and mitochondrial levels
same,time over which growth restoration can be sustained,[12]; continued reliance on hinokitiol,> 40 days
same,restoration of cell growth,[12]; fet3Δftr1Δ yeast,restored cell growth
same,growth level relative to wild type,"[12]; hinokitiol-treated fet3Δftr1Δ yeast, liquid media",grow to wild type levels
same,influx of 55Fe into cells,[12]; yeast,restoration of influx of ^55Fe into cells
same,iron transport (release of iron from POPC liposomes),[13],confirmed; also recorded: promotes the release of iron from POPC liposomes
same,lethality,[14],non-lethal
same,pharmacokinetic half life,[15]; IP injection in F344 rats,reasonable pharmacokinetic half life
same,toxicity in healthy rats,"[15]; rat, in vivo",relatively non-toxic
"CC(C)c1cccc(=O)cc1 [C2deOHino, C2-deoxy hinokitiol]",55Fe uptake into cells,[1]; hinokitiol 500 nM,unable to promote uptake or transport
same,transepithelial 55Fe transport,[1]; hinokitiol 500 nM,unable to promote uptake or transport
same,hematocrit after one month of treatment,[4],low hematocrits normally observed for untreated b/b rats
same,iron binding,[5],ablated iron binding and transport; also recorded: does not bind or transport iron; also recorded: does not
same,55Fe incorporation into heme,[6],did not produce these effects
same,55Fe uptake,[6],did not produce these effects
same,hemoglobinization,[6],did not produce these effects
same,differentiation (staining of hemoglobinized cells with o-dianisidine),"[8]; shDMT1 MEL cells, 72 hours",unable to restore physiology in any case
same,59Fe incorporation into heme,[10],no apparent effect
same,iron transport (release of iron from POPC liposomes),[13],ablated iron binding and transport; also recorded: does not bind or transport iron; also recorded: do not
"Cc1c(O)c(=O)ccn1C [deferiprone, reference compound]",55Fe uptake into cells,[1]; hinokitiol 500 nM,unable to promote uptake or transport
same,transepithelial 55Fe transport,[1]; hinokitiol 500 nM,unable to promote uptake or transport
same,solubility in hexanes / partitioning into water,[16],partition primarily into water
"hepcidin: key iron regulator, down-regulating FPN1 by promoting its degradation (DTHFPICIFCCGCCHRSKCGMCCKT; ends and bridges not checked; cysteine pairing not given here; UniProt P81172 60-84, looked up) [reference compound]",iron release after FPN1 down-regulation,"[7]; J774 cells with 55Fe-transferrin, presence of hepcidin",reduced iron release
CC[C@H](C)C[C@H](C)CCCCCCCCC(=O)N[C@H]1C[C@@H](O)[C@@H](NCCN)NC(=O)[C@@H]2[C@@H](O)CCN2C(=O)[C@H]([C@H](O)CCN)NC(=O)[C@H]([C@H](O)[C@@H](O)c2ccc(O)cc2)NC(=O)[C@@H]2C[C@@H](O)CN2C(=O)[C@H]([C@@H](C)O)NC1=O [caspofungin],sensitivity of hino-rescued yeast to chemical inhibition,[17],equi-sensitive
O=c1c(O)c(-c2ccc(O)c(O)c2)oc2cc(O)cc(O)c12 [quercetin],transepithelial transport after FPN1 down-regulation,[3]; [18],decreased transepithelial transport
same,uptake after FPN1 down-regulation,[3]; [18],without affecting uptake
CC(C)c1cccc([O-])c(=O)c1.CC(C)c1cccc([O-])c(=O)c1.CC(C)c1cccc([O-])c(=O)c1.[Fe+3] [tris(hinacolato) iron (III)],partitioning of iron complex into octanol,[16],predominantly partitions into octanol
same,solubility in hexanes / partitioning into water,[16],soluble in hexanes
CO/C1=C\C(C)=C\[C@@H](C)[C@@H](O)[C@@H](C)C/C(C)=C/C=C/[C@H](OC)[C@@H]([C@@H](C)[C@@H](O)[C@H](C)[C@@]2(O)C[C@@H](O)[C@H](C)[C@@H](C(C)C)O2)OC1=O [bafilomycin],sensitivity of hino-rescued yeast to chemical inhibition,[17],exceptionally sensitive
"Cc1ncc(CO)c(C=NNC(=O)c2ccncc2)c1O [pyridoxal isonicotinoyl hydrazone, reference compound]",55Fe uptake into cells,[1]; hinokitiol 500 nM,unable to promote uptake or transport
same,transepithelial 55Fe transport,[1]; hinokitiol 500 nM,unable to promote uptake or transport
